Results on 25 compounds are retold here after US8404718B2, “Combinations of pyrazole kinase inhibitors” (Astex Therapeutics Limited, priority 2005, dated 2013).

The target in one series is CDK5/p35 (Homo sapiens, UniProt Q00535). In words: CDK selectivity assay, CDK5/p35. In kind it is biochemical. From the text: (§1) (specific activity approx 500 cpm/pmol, concentration as required).
The test system of series [1] is human colon carcinoma cell line HCT 116. In words: Anti-proliferative activity, Alamar Blue assay. In kind it is cell-based. Conditions: 72 hours compound incubation, read-out: IC50, inhibition of cell growth, HCT 116. The method in brief: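 Cells were allowed to recover for 16 h, then exposed to compounds or combinations for 72 h. Viability was measured by resazurin reduction after 6 h with 10% (v/v) Alamar Blue, read at 535 nm ex/590 […] em. In the non-proliferating format, cells were held at confluence for 96 h before the 72 h treatment.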

Another series has as its target T1, CDK2/CyclinA (Homo sapiens, UniProt P24941).
T1 construct: purchased Upstate Biotechnology
Briefly: Measurement of CDK2 kinase inhibitory activity (IC50), Example 248. In kind it is biochemical. Here is the method: Compounds of the invention were tested for kinase inhibitory activity using either the following protocol or the activated CDK2/cyclin A kinase protocol described in Example 250.
1.7 μl of active CDK2/CyclinA (Upstate Biotechnology, 10 U/μl) is diluted in assay buffer (25.0 μl of 10× strength assay buffer (200 mM MOPS pH 7.2, 250 mM (3-glycerophosphate, 50 mM EDTA, 150 mM MgCl2), 11.27 μl 10 mM ATP, 2.5 μl 1M DTT, 25 μl 100 mM sodium orthovanadate, 708.53 μl H2O), and 10 μl mixed with 10 μl of histone substrate mix (60 μl bovine histone H1 (Upstate Biotechnology, 5 mg/ml), 940 μl H2O, 35 μCi γ^33P-ATP) and added to 96 well plates along with 5 μl of various dilutions of the test compound in DMSO (up to 2.5%). The reaction is allowed to proceed for 5 hours before being stopped with an excess of ortho-phosphoric acid (30 μl at 2%).
γ^33P-ATP which remains unincorporated into the histone H1 is separated from phosphorylated histone H1 on a Millipore MAPH filter plate. The wells of the MAPH plate are wetted with 0.5% orthophosphoric acid, and then the results of the reaction are filtered with a Millipore vacuum filtration unit through the wells. Following filtration, the residue is washed twice with 200 μl of 0.5% orthophosphoric acid. Once the filters have dried, 25 μl of Microscint 20 scintillant is added, and then counted on a Packard Topcount for 30 seconds.

The target of a further series is Activated CDK2/CyclinA (Homo sapiens, UniProt P24941). Briefly: Activated CDK2/CyclinA kinase inhibitory activity assay (IC50), Example 250A. In kind it is biochemical.
For a further series, the target named is T2, GSK3-β (Homo sapiens, UniProt P49841).
T2 construct: purchased Upstate Discovery
In words: Inhibitory activity against glycogen synthase kinase-3 (Protocol A or B). The settings on record: either Protocol A or Protocol B; read-out: IC50 in the GSK3-B assays. In kind it is biochemical. Here is the method:
The activities of the compounds of the invention as inhibitors of GSK-3 were determined using either Protocol A or Protocol B below.
The reaction is allowed to proceed for 3 hours before being stopped with an excess of ortho-phosphoric acid (5 μl at 2%). The filtration procedure is as for Activated CDK2/CyclinA assay above.
GSK3β (human) is diluted to a 10× working stock in 50 mM Tris pH 7.5, 0.1 mM EGTA, 0.1 mM sodium vanadate, 0.1% β-mercaptoethanol, 1 mg/ml BSA.
as §1

Another series has as its target T3, CDK1/CyclinB (Homo sapiens, UniProt P06493).
T3 construct: purchased Upstate Discovery
In words: CDK1/CyclinB assay. In kind it is biochemical. The settings on record: Example 250B protocol or selectivity protocol. The procedure:
as §1
The reaction is allowed to proceed for 2 to 4 hours before being stopped with an excess of ortho-phosphoric acid (5 μl at 2%).
γ^33P-ATP which remains unincorporated into the histone H1 is separated from phosphorylated histone H1 on a Millipore MAPH filter plate. The wells of the MAPH plate are wetted with 0.5% orthophosphoric acid, and then the results of the reaction are filtered with a Millipore vacuum filtration unit through the wells. Following filtration, the residue is washed twice with 200 μl of 0.5% orthophosphoric acid. Once the filters have dried, 20 μl of Microscint 20 scintillant is added, and then counted on a Packard Topcount for 30 seconds.

The conditions of series [2]: clinical studies; cited from earlier work.
The next series has as its system PKA. The settings on record: data published in 2002; cited from earlier work.
For a further series, the system named is PKG. The settings on record: data published in 2002; cited from earlier work.
A further series relates to PKC. Conditions: data published in 2002; cited from earlier work.
In the next series the test system is OVCAR-3 tumour cells. Conditions: concentrations of 50 and 100 microM; cited from earlier work.
The next series relates to symptomatic CLL patients. Conditions: initial therapy; cited from earlier work.
Another series in a line: Solubility of the salt. In kind it is physicochemical.
Series [3] in a line: Stability and hygroscopicity of the salt. In kind it is physicochemical. From the text:
The term ‘stable’ or ‘stability’ as used herein includes chemical stability and solid state (physical) stability. The term ‘chemical stability’ means that the compound can be stored in an isolated form, or in the form of a formulation in which it is provided in admixture with for example, pharmaceutically acceptable carriers, diluents or adjuvants as described herein, under normal storage conditions, with little or no chemical degradation or decomposition. ‘Solid-state stability’ means the compound can be stored in an isolated solid form, or the form of a solid formulation in which it is provided in admixture with, for example, pharmaceutically acceptable carriers, diluents or adjuvants as described herein, under normal storage conditions, with little or no solid-state transformation (e.g. hydration, dehydration, solvatisation, desolvatisation, crystallisation, recrystallisation or solid-state phase transition).

Molecules are shown by their SMILES. Where a name gives a salt, the structure may show the parent alone.

T2 sequence (P49841 whole entry): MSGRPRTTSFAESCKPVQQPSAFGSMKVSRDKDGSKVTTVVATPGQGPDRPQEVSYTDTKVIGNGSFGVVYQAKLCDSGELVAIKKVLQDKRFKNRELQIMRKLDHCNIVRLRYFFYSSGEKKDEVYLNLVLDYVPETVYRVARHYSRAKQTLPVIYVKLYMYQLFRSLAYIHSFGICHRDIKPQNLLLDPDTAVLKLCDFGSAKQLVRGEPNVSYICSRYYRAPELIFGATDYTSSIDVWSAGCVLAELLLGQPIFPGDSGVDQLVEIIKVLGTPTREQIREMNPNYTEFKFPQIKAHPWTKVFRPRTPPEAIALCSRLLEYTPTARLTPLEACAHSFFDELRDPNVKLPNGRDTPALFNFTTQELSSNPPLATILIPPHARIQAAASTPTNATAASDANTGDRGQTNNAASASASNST
T3 sequence (P06493 whole entry): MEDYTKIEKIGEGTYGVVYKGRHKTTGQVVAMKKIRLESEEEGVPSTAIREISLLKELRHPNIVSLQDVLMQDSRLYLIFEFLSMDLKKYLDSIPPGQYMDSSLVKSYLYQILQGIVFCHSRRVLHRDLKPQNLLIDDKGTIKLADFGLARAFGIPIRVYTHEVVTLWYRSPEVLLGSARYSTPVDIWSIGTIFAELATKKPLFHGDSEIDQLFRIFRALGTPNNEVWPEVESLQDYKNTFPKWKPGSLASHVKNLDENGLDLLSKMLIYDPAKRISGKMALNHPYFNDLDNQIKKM
T3 sequence (P14635 whole entry partner): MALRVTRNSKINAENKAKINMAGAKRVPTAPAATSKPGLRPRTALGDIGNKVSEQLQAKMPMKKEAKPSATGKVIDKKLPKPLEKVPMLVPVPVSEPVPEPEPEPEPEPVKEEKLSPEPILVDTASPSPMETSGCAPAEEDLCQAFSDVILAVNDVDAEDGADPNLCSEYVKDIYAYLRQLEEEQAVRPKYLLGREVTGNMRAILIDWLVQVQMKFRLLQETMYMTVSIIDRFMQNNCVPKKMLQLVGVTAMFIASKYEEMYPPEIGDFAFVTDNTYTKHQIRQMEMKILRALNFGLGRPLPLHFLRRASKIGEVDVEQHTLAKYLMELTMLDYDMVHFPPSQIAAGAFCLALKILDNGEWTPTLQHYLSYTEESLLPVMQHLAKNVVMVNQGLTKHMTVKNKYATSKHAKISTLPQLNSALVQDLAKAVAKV
Sequence of CDK5/p35 (Q00535 whole entry, species assumed): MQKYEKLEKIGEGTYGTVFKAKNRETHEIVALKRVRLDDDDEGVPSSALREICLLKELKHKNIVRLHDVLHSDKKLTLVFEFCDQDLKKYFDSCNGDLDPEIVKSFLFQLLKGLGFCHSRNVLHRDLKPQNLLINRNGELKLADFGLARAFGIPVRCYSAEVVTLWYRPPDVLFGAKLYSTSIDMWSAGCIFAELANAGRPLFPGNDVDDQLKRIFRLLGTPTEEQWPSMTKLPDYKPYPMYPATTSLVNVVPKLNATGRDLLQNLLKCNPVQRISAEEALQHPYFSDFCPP
Sequence of CDK5/p35 (Q15078 whole entry partner, species assumed): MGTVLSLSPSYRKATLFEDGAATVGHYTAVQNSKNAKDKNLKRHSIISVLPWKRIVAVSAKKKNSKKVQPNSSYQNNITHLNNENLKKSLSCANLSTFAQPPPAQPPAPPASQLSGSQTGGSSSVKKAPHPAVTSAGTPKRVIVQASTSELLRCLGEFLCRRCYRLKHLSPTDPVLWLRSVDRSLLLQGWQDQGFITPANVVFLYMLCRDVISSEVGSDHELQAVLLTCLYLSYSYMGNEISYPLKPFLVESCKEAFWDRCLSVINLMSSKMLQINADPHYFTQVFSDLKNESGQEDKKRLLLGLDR

For orientation: IC50 means the concentration needed to halve the response being measured. As for `O=C(Nc1ccc(F)cc1)c1n[nH]cc1NC(=O)c1c(F)cccc1F` [Example 41, 4-(2,6-Difluoro-benzoylamino)-1H-pyrazole-3-carboxylic acid (4-fluoro-phenyl)-amide], the IC50 (against CDK5/p35; in [1]) was < 20 µM in each case.
Regarding `CC1(C)CC(NC(=O)c2n[nH]cc2NC(=O)c2c(F)cccc2F)CC(C)(C)N1` [Example 88], the 50% inhibitory concentration (IC50) against CDK2/CyclinA is < 750 µM.
With `O=C(NCc1c(Cl)cccc1Cl)c1n[nH]cc1NC(=O)c1c(F)cccc1F` [Example 93], the values for the IC50 (against CDK2/CyclinA; in series [1]) were < 750 µM and < 20 µM, respectively.
On to `N[C@H]1CC[C@H](NC(=O)c2n[nH]cc2NC(=O)c2c(F)cccc2F)CC1` [Example 102], for which the results for the IC50 (against Activated CDK2/CyclinA; on GSK3-β; in series [1]) were < 20 µM, < 10 µM and < 20 µM, respectively.
With `CC(C)N1CCC(NC(=O)c2n[nH]cc2NC(=O)c2c(F)cccc2F)CC1` [Example 106], the IC50 on Activated CDK2/CyclinA is < 20 µM; on GSK3-β, < 10 µM; in series [1] it was < 20 µM.
Take `COc1cccc(F)c1C(=O)Nc1c[nH]nc1C(=O)NC1CCN(C(=O)OC(C)(C)C)CC1` [Example 119]: the half-maximal inhibitory concentration (IC50) at Activated CDK2/CyclinA is < 20 µM; at GSK3-β, < 10 µM; in series [1], < 20 µM.
With `COc1cccc(F)c1C(=O)Nc1c[nH]nc1C(=O)NC1CCC(C(C)(C)C)CC1` (stereo not drawn) [Example 123], the IC50 on Activated CDK2/CyclinA is < 20 µM; on GSK3-β, < 10 µM; in series [1] it was < 20 µM.
`CS(=O)(=O)N1CCC(NC(=O)c2n[nH]cc2NC(=O)c2c(F)cccc2F)CC1` [Example 131]: the figures for the half-maximal inhibitory concentration (IC50) (at Activated CDK2/CyclinA; at GSK3-β; in series [1]) were < 20 µM, < 10 µM and < 20 µM, respectively.
Turning to `CC(C)(C)C1CCC(NC(=O)c2n[nH]cc2NC(=O)c2ccc(CN3CCCC3)o2)CC1` (stereo not drawn) [Example 134], the half-maximal inhibitory concentration (IC50) against Activated CDK2/CyclinA was < 20 µM; at GSK3-β, < 10 µM; in series [1], < 20 µM.
As to `CC(C)(C)C1CCC(NC(=O)c2n[nH]cc2NC(=O)c2ccc(CN3CCOCC3)o2)CC1` (stereo not drawn) [Example 135], the values for the IC50 (on Activated CDK2/CyclinA; on GSK3-β; in series [1]) were < 20 µM, < 10 µM and < 100 µM, respectively.
In the same order, the values of `COc1cccc(F)c1C(=O)Nc1c[nH]nc1C(=O)NC1CCNCC1` [Example 142] are < 20 µM, < 10 µM and < 20 µM.
In the same order, the values of `O=C(Nc1c[nH]nc1C(=O)NC1CCNCC1)c1ccc(Cl)cc1` [Example 143] are < 20 µM, < 10 µM and < 20 µM.
On to `O=C(Nc1c[nH]nc1C(=O)NC1CCNCC1)c1cc(-c2ccccc2)cs1` [Example 147], for which the results for the 50% inhibitory concentration (IC50) (against Activated CDK2/CyclinA; at GSK3-β; in [1]) were < 20 µM, < 10 µM and < 20 µM, respectively.
On to `O=C(NC1CCNCC1)c1n[nH]cc1NC(=O)c1c(F)cccc1Cl` [Example 149], for which the half-maximal inhibitory concentration (IC50) on Activated CDK2/CyclinA was < 20 µM; at GSK3-β, < 10 µM; in series [1], < 20 µM.
As to `CN1CCC(NC(=O)c2n[nH]cc2NC(=O)c2cccc3c2OCCO3)CC1` [Example 188], the half-maximal inhibitory concentration (IC50) on Activated CDK2/CyclinA was < 20 µM; at CDK1/CyclinB it was < 100 µM; in series [1], < 20 µM.
Take `COc1cccc(OC)c1C(=O)Nc1c[nH]nc1C(=O)NC1CCN(C)CC1` [Example 206]: the IC50 (on CDK1/CyclinB; in series [1]) was < 100 µM throughout.
As to `CN1CCN(c2ccc(CNC(=O)c3n[nH]cc3-c3ccc(Cl)cc3Cl)cc2)CC1` [Example 226, 4-(2,4-Dichloro-phenyl)-1H-pyrazole-3-carboxylic acid 4-(4-methyl-piperazin-1-yl)-benzylamide], the IC50 on CDK2/CyclinA was < 750 µM.
With `NC(=O)c1n[nH]cc1-c1ccccc1` [Example 228, 4-Phenyl-1H-pyrazole-3-carboxylic acid amide], at CDK2/CyclinA, the concentration for half-maximal inhibition (IC50) was < 750 µM.
The same measure, in the same setting: in the case of `CN1CCN(c2ccc(CNC(=O)c3n[nH]cc3-c3ccccc3)cc2)CC1` [Example 230, 4-Phenyl-1H-pyrazole-3-carboxylic acid 4-(4-methyl-piperazin-1-yl)-benzylamide] it was < 750 µM; in that of `Cc1ccc(C)n1-c1c[nH]nc1C(=O)Nc1ccc(F)cc1` [Example 235, 4-(2,5-Dimethyl-pyrrol-1-yl)-1H-pyrazole-3-carboxylic acid(4-fluoro-phenyl)-amide], < 750 µM.
For `CCCCCCCCCCCCCCCCCCOP(=O)([O-])OC1CC[N+](C)(C)CC1` [KRX-0401, Perifosine], the Half-life in [2] was ~100 h.
For `O=S(=O)(NCCNCC=C(c1ccccc1)c1ccccc1)c1cccc2cnccc12` [NL-71-101], the half-inhibitory concentration (IC50) with PKA is 9 µM; with PKG, 36 µM; with PKC, 104 µM. The “Apoptosis in OVCAR-3 tumour cells” value with OVCAR-3 tumour cells is “induced apoptosis”.
Consider `Nc1nc(F)nc2c1ncn2[C@@H]1O[C@H](CO)[C@@H](O)[C@@H]1O` [fludarabine], for which, in the series with symptomatic CLL patients, the “Duration of progression-free survival” value is reported as 33 months and the “Rate of complete responses” value is 27%.
`CS(=O)(=O)O.O=C(NC1CCNCC1)c1n[nH]cc1NC(=O)c1c(Cl)cccc1Cl` [methanesulphonate salt, 4-(2,6-dichlorobenzoylamino)-1H-pyrazole-3-carboxylic acid piperidin-4-ylamide methanesulphonate]: the Water solubility entry in the series “Solubility of the salt” is “excellent”. Further, the Hygroscopicity entry in series [3] is “non-hygroscopicity”.
What is called solubility is the dissolved amount per volume that the medium holds. In the case of `O=C(NC1CCNCC1)c1n[nH]cc1NC(=O)c1c(Cl)cccc1Cl` [methanesulphonic acid salt, 4-(2,6-dichloro-benzoylamino)-1H-pyrazole-3-carboxylic acid piperidin-4-ylamide], the solubility in the series “Solubility of the salt” (pH 4.6, aqueous buffer, acetic acid/sodium acetate buffer, solution pH approximately 4.6) was ~35 mg/mL.
